According to patent publication US10543212B2, “Substituted amines for treating cardiac diseases” (Cardurion Pharmaceuticals, LLC, priority 2017, dated 2020):

target: T1, Full-length, GST-tagged, human CaMKIIδ (Homo sapiens, UniProt Q13557); assay: CaMKIIδ binding assay (TR-FRET with BODIPY-labeled probe ligand); settings: CaMKIIδ binding assay; activity class per Table 2
T1 construct: Full-Length, Glutathione-S-Transferase(GST)-Tagged, Human CaMKIIδ was purchased from Carna Biosciences; purchased Carna Biosciences 02-111
T1 sequence (Q13557 1-478 isoform Q13557-12): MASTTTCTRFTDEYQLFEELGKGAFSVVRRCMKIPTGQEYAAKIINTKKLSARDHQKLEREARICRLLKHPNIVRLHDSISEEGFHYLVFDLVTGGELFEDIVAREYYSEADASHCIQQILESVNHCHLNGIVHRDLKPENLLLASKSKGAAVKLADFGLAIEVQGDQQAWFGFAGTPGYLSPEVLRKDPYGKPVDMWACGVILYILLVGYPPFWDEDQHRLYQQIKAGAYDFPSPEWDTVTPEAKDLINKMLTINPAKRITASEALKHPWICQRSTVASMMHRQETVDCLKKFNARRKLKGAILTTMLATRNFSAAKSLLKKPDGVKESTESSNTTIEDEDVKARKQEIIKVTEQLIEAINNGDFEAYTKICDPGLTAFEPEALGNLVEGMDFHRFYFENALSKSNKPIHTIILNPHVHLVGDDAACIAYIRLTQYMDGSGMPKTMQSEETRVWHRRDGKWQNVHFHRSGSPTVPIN
Procedure, shortened: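 TR-FRET probe-displacement binding: 0.5 nM GST-CaMKIIδ with 10 μg/mL calmodulin, 1 mM CaCl2, 0.21 nM Tb-anti-GST Ab and 300 nM BODIPY probe in HEPES pH 7.6 buffer. Eight-point 4-fold dilutions, 1 hr at room temperature. IC50 from logistic fit; 100% inhibition defined by 3 μM parent compound.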

SMILES | IC50 [nM]
C[C@@H](Cn1cnnn1)Oc1cc(-c2cnc(Nc3cn(CC4(O)CCN(C5CCOCC5)CC4)nc3C(F)(F)F)nc2)ccc1Cl [Example 905, (S)-4-((4-((5-(3-((1-(1H-tetrazol-1-yl)propan-2-yl)oxy)-4-chlorophenyl)pyrimidin-2-yl)amino)-3-(trifluoromethyl)-1H-pyrazol-1-yl)methyl)-1-(tetrahydro-2H-pyran-4-yl)piperidin-4-ol] | < 10
C[C@@H](Cn1cnnn1)Oc1cc(-c2cnc(Nc3cn(C[C@]4(O)CC[C@H](O)CC4)nc3OCC(F)(F)F)nc2)ccc1Cl [Example 906, trans-1-((4-((5-(3-(((S)-1-(1H-tetrazol-1-yl)propan-2-yl)oxy)-4-chlorophenyl)pyrimidin-2-yl)amino)-3-(2,2,2-trifluoroethoxy)-1H-pyrazol-1-yl)methyl)cyclohexane-1,4-diol] | < 10
CC(Cn1cnnn1)Oc1cc(-c2cnc(Nc3cn(CC4(O)CCC(O)CC4)nc3OCC(F)(F)F)nc2)ccc1Cl [Example 907, cis-1-((4-((5-(3-(((S)-1-(1H-tetrazol-1-yl)propan-2-yl)oxy)-4-chlorophenyl)pyrimidin-2-yl)amino)-3-(2,2,2-trifluoroethoxy)-1H-pyrazol-1-yl)methyl)cyclohexane-1,4-diol] | < 10
C[C@@H](Cn1cnnn1)Oc1cc(-c2cnc(Nc3cn(CC4(O)CCN(C5CCC5)CC4)nc3OCC(F)(F)F)nc2)ccc1Cl [Example 908, (S)-4-((4-((5-(3-((1-(1H-tetrazol-1-yl)propan-2-yl)oxy)-4-chlorophenyl)pyrimidin-2-yl)amino)-3-(2,2,2-trifluoroethoxy)-1H-pyrazol-1-yl)methyl)-1-cyclobutylpiperidin-4-ol] | < 10
C[C@@H](Cn1cnnn1)Oc1cc(-c2cnc(Nc3cn(CC4(O)CCN(C5CCOCC5)CC4)nc3OCC(F)(F)F)nc2)ccc1Cl [Example 909, (S)-4-((4-((5-(3-((1-(1H-tetrazol-1-yl)propan-2-yl)oxy)-4-chlorophenyl)pyrimidin-2-yl)amino)-3-(2,2,2-trifluoroethoxy)-1H-pyrazol-1-yl)methyl)-1-(tetrahydro-2H-pyran-4-yl)piperidin-4-ol] | < 10
C[C@@H](Cn1cnnn1)Oc1cc(-c2cnc(Nc3cn(CC4(O)CCN(C)CC4)nc3OCC(F)(F)F)nc2)ccc1Cl [Example 910, (S)-4-((4-((5-(3-((1-(1H-tetrazol-1-yl)propan-2-yl)oxy)-4-chlorophenyl)pyrimidin-2-yl)amino)-3-(2,2,2-trifluoroethoxy)-1H-pyrazol-1-yl)methyl)-1-methylpiperidin-4-ol] | < 10
CC(Cn1cnnn1)Oc1cc(-c2cnc(Nc3cn(CC4(O)CCC(N5CCOCC5)CC4)nc3OCC(F)(F)F)nc2)ccc1Cl [Example 911, trans-1-((4-((5-(3-(((S)-1-(1H-tetrazol-1-yl)propan-2-yl)oxy)-4-chlorophenyl)pyrimidin-2-yl)amino)-3-(2,2,2-trifluoroethoxy)-1H-pyrazol-1-yl)methyl)-4-morpholinocyclohexan-1-ol] | < 10
CC(Cn1cnnn1)Oc1cc(-c2cnc(Nc3cn(CC4(O)CCC(N5CCOCC5)CC4)nc3OCC(F)(F)F)nc2)ccc1Cl [Example 912, cis-1-((4-((5-(3-(((S)-1-(1H-tetrazol-1-yl)propan-2-yl)oxy)-4-chlorophenyl)pyrimidin-2-yl)amino)-3-(2,2,2-trifluoroethoxy)-1H-pyrazol-1-yl)methyl)-4-morpholinocyclohexan-1-ol] | < 10
C[C@@H](Cn1cnnn1)Oc1cc(-c2cnc(Nc3cn(CC(O)CN4CCOCC4)nc3OCC(F)(F)F)nc2)ccc1Cl (stereo partly drawn) [Example 913, 1-(4-((5-(3-(((S)-1-(1H-tetrazol-1-yl)propan-2-yl)oxy)-4-chlorophenyl)pyrimidin-2-yl)amino)-3-(2,2,2-trifluoroethoxy)-1H-pyrazol-1-yl)-3-morpholinopropan-2-ol] | < 10
C[C@@H](Cn1cnnn1)Oc1cc(-c2cnc(Nc3cn(C4(CO)CCC4)nc3OCC(F)(F)F)nc2)ccc1Cl [Example 914, (S)-(1-(4-((5-(3-((1-(1H-tetrazol-1-yl)propan-2-yl)oxy)-4-chlorophenyl)pyrimidin-2-yl)amino)-3-(2,2,2-trifluoroethoxy)-1H-pyrazol-1-yl)cyclobutyl)methanol] | < 10
CCOC(=O)C1(n2cc(Nc3ncc(-c4ccc(Cl)c(O[C@@H](C)Cn5cnnn5)c4)cn3)c(OCC(F)(F)F)n2)CCC1 [Example 915, ethyl (S)-1-(4-((5-(3-((1-(1H-tetrazol-1-yl)propan-2-yl)oxy)-4-chlorophenyl)pyrimidin-2-yl)amino)-3-(2,2,2-trifluoroethoxy)-1H-pyrazol-1-yl)cyclobutane-1-carboxylate] | < 10
C[C@@H](Cn1cnnn1)Oc1cc(-c2cnc(Nc3cn(C4(C(=O)O)CCC4)nc3OCC(F)(F)F)nc2)ccc1Cl [Example 916, (S)-1-(4-((5-(3-((1-(1H-tetrazol-1-yl)propan-2-yl)oxy)-4-chlorophenyl)pyrimidin-2-yl)amino)-3-(2,2,2-trifluoroethoxy)-1H-pyrazol-1-yl)cyclobutane-1-carboxylic acid] | 10 to 100
C[C@@H](Cn1cnnn1)Oc1cc(-c2cnc(Nc3cn(C4(C(N)=O)CCC4)nc3OCC(F)(F)F)nc2)ccc1Cl [Example 917, (S)-1-(4-((5-(3-((1-(1H-tetrazol-1-yl)propan-2-yl)oxy)-4-chlorophenyl)pyrimidin-2-yl)amino)-3-(2,2,2-trifluoroethoxy)-1H-pyrazol-1-yl)cyclobutane-1-carboxamide] | < 10
CC(Cn1cnnn1)Oc1cc(-c2cnc(Nc3cn(C4CCC(O)(CN5CCOCC5)CC4)nc3C(F)(F)F)nc2)ccc1Cl [Example 918, trans-4-(4-((5-(3-(((S)-1-(1H-tetrazol-1-yl)propan-2-yl)oxy)-4-chlorophenyl)pyrimidin-2-yl)amino)-3-(trifluoromethyl)-1H-pyrazol-1-yl)-1-(morpholinomethyl)cyclohexan-1-ol] | < 10
C[C@@H](Cn1cnnn1)Oc1cc(-c2cnc(Nc3cn(C4CC5(C4)CN(C(=O)OC(C)(C)C)C5)nc3C(F)(F)F)nc2)ccc1Cl [Example 919, tert-butyl (S)-6-(4-((5-(3-((1-(1H-tetrazol-1-yl)propan-2-yl)oxy)-4-chlorophenyl)pyrimidin-2-yl)amino)-3-(trifluoromethyl)-1H-pyrazol-1-yl)-2-azaspiro[3.3]heptane-2-carboxylate] | ≥ 100
C[C@@H](Cn1cnnn1)Oc1cc(-c2cnc(Nc3cn(C4CC5(CNC5)C4)nc3C(F)(F)F)nc2)ccc1Cl [Example 920, (S)-5-(3-((1-(1H-tetrazol-1-yl)propan-2-yl)oxy)-4-chlorophenyl)-N-(1-(2-azaspiro[3.3]heptan-6-yl)-3-(trifluoromethyl)-1H-pyrazol-4-yl)pyrimidin-2-amine] | < 10
C[C@@H](Cn1cnnn1)Oc1cc(-c2cnc(Nc3cn(C4CC5(C4)CN(C4CCC4)C5)nc3C(F)(F)F)nc2)ccc1Cl [Example 921, (S)-5-(3-((1-(1H-tetrazol-1-yl)propan-2-yl)oxy)-4-chlorophenyl)-N-(1-(2-cyclobutyl-2-azaspiro[3.3]heptan-6-yl)-3-(trifluoromethyl)-1H-pyrazol-4-yl)pyrimidin-2-amine] | < 10
